Measurements taken from patent publication US11311537B2, “Diagnosis and treatment of lymphoproliferative disorders with PARP inhibitors” (UNIVERSITY OF MIAMI, priority 2016, dated 2022).
Entries after “also recorded” stand apart in the source; their conditions may differ.

Legend:
[1] = test system: DLBCL LMO2+ cell lines (OCI-Ly8, OCI-Ly19, DOHH2); assay: Colony formation assay, olaparib in combination with genotoxic agents (Combination Index); format: cell-based, human
Excerpt: Only colonies with 50 or more cells where counted. *P<0.001, Two-way ANOVA. […] CI, Combination Index (CI<1 indicates a synergistic effect).

[2] = test system: OCI-Ly8 cells; assay: gammaH2AX DNA damage foci (immunofluorescence); format: cell-based, human; conditions: OCI-Ly8, 24 hs exposure
Experimental: Immunofluorescence studies: For studying DNA break repair, DNA double-strand breaks were induced either by exposing the cells to ionization radiation (IR). DLBCL cell lines were exposed to gamma ray source at 10 Gy (cobalt 60 irradiator) and U2OS cells were exposed to 4 Gy. Alternatively double-stranded breaks were induced by adding Doxorubicin (12.5 ng/ml) to the culture during 16-20 hs. Cells were attached on a glass slide pre-coated with poly-lysine for 30 min. Cells were fixed with 4% Para-formaldehyde in 1×PBS for 15 min at room temperature. After fixing, cells were permeabilized using blocking solution (1 mg/ml BSA, 5% Goat/Horse normal serum, 0.5% TritonX-100) for 30 min. Cells were incubated with primary antibodies diluted in blocking solution for 1 h. Cells were washed three times with 1×PBS 5 min each. After washing, cells were incubated with secondary antibodies diluted in blocking solution, Alexa Fluor 488 or Alexa Fluor 594 for 30 min. Cells were then washed with 1×PBS twice for 5 min each wash. Nuclear DNA was visualized via DAPI (1 μg/ml) (Sigma Aldrich) staining for 15 min. Finally, cells were washed with 1×PBS for 15 min to remove excess stain and mounted with Prolong Gold antifade reagent (Invitrogen). Images were acquired using a Leica DMI6000 B Fluorescence microscope.

[3] = test system: DOHH2; assay: MTS cell proliferation assay, olaparib IC50; format: cell-based; conditions: Homo sapiens, DOHH-2; DOHH2, DLBCL LMO2+
Experimental: (§1) Proliferation and cell cycle studies: Cell proliferation was studied using cell titer 96 Aqueous Non-radioactive cell proliferation (MTS) kit from Promega. This assay was performed following manufacturer's instructions. For cell cycle studies, cells were fixed with 70% cold ethanol and incubated overnight at 4° C. Next, cells were washed once with 1×PBS and incubated with 50 μg/ml Propidium Iodide (Invitrogen) and RNAse (0.1 mg/ml) for 30 min. Cells were analyzed using a flow cytometer (BD FACS Canto-II analyzer).

[4] = test system: OCI-Ly8; assay: MTS cell proliferation assay, olaparib IC50; format: cell-based; conditions: Homo sapiens; OCI-Ly8, DLBCL LMO2+
Experimental: as §1

[5] = test system: OCI-19; assay: MTS cell proliferation assay, olaparib IC50; format: cell-based; conditions: Homo sapiens; OCI-19, DLBCL LMO2+
Experimental: as §1

[6] = test system: DLBCL LMO2- and control cell lines (OCI-Ly1, U2932, IMR90, HCC1187); assay: MTS cell proliferation assay; format: cell-based, human
Experimental: as §1

[7] = test system: DLBCL LMO2+ cell lines (OCI-Ly8, OCI-Ly19 and DOHH2); assay: MTS cell proliferation assay; format: cell-based, human; conditions: OCI-Ly8, OCI-Ly19, DOHH2 compared with IMR90, HCC1187, OCI-Ly1, U2932; p<0.001 by ANOVA
Experimental: as §1

[8] = test system: MOLT16 (LMO2-positive) versus Jurkat (LMO2-negative); assay: MTS cell proliferation assay in T-ALL cell lines; format: cell-based, human; conditions: LMO2 expressing versus LMO2 negative T-ALL cell line, 4 days, p<0.001 by ANOVA
Excerpt: (§2) FIG. 7A, quantification of cell proliferation via MTS assay in MOLT16 (LMO2+) and Jurkat (LMO2−) T cell lymphoblastic leukemia cell lines exposed to different concentrations of olaparib during 4 days. *P<0.001, Two-way ANOVA. FIG. 7B, quantification of the flow cytometer results for Annexin V staining after 4 days in presence or absence of indicated concentrations of olaparib for cell death analysis in the indicated T cell lymphoblastic leukemia cell lines.
as §1

[9] = test system: DLBCL LMO2+ cell lines; assay: Cell death analysis by Annexin V / propidium iodide flow cytometry; format: cell-based, human; conditions: 4 days, 1 μM olaparib
Excerpt: FIG. 4A, MTS assay to evaluate effect of olaparib on the proliferation of human lymphoblasts (HCC1187), human primary lung fibroblasts (IMR90) and human lymphomas cells (LMO2 negative (U2932, OCI-Ly1) and LMO2 positive (DOHH2, OCI-Ly8, OCI-Ly19)). *P<0.0001. Two-way ANOVA. FIG. 4B, quantification of colony formation assays in OCI-Ly1, DOHH2, VaL and Val (LMO2 KO)-LMO2-null Val cells exposed to different concentrations of olaparib. Only colonies with 50 or more cells where counted. *P<0.001, Two-way ANOVA. FIG. 4C, quantification of the flow cytometer results for Propidium Iodide (PI) and Annexin V staining after 4 days in presence or absence of 1 μM olaparib for cell death analysis in the indicated lymphoma cell lines. FIG. 4D, representative pictures of colony formation assay quantified in FIG. 4B using DOHH2 cells. […] CI, Combination Index (CI<1 indicates a synergistic effect). FIG. 4F, quantification of γH2AX DNA damage foci in OCI-Ly8 cells exposed to or not exposed to olaparib during 24 hs.

[10] = breast cancer treated patients; cited from earlier work
[11] = test system: MOLT16 (LMO2-positive) versus Jurkat (LMO2-negative); assay: Annexin V cell death analysis in T-ALL cell lines; format: cell-based, human; conditions: LMO2 expressing versus LMO2 negative T-ALL cell line, 4 days
Excerpt: as §2

[12] = test system: primary human DLBCL tumors expressing or not LMO2; assay: MTS assay in primary human tumor samples; format: cell-based; conditions: LMO2- and reactive follicular hyperplasia
Excerpt: FIGS. 6A-6C: Olaparib and doxorubicin show synergy to kill primary DLBCL cells expressing LMO2. FIG. 6A, MTS assay to evaluate the effect of exposure to different concentrations of olaparib alone or in combination with doxorubicin in primary human DLBCL tumors expressing or not LMO2 and a Reactive follicular hyperplasia (LMO2−). CI, Combination Index (CI<1 indicates a synergistic effect). FIG. 6B, Western blots showing LMO2 level in human DLBCL cell lines (OCI-Ly1 (LMO2 negative), OCI-Ly19 (LMO2 positive), human primary lymphoblasts (HCC1187)), and primary human tumors (LMO2+, DLBCL expressing LMO2, LMO2−, DLBCL not expressing LMO2) and RFH-Reactive follicular hyperplasia not expressing LMO2. GAPDH was used as loading control. FIG. 6C, immunohistochemistry (IHC) for LMO2 in primary human DLBCL samples used for FIGS. 6A and 6B. H&E, hematoxylin and eosin staining.
Primary tumors were obtained from DLBCL or no DLBCL patients following appropriate consent of the IRB approved protocol and single cell suspension generated using standard techniques.
as §1

[13] = test system: DLBCL LMO2+ cell lines; assay: Colony-forming assay; format: cell-based, human; conditions: olaparib pretreatment 48 h, colonies after 14 days
Experimental: Colony-forming assay: Clonogenic assays were performed as described elsewhere (McDonnell, Oncogene, 31(32), 3733-3740 (2012)). In total, 500 cells were pretreated with indicated olaparib concentration (0; 1; 10; 100; 1,000; and 10,000 nM) for 48 h and seeded in triplicate in MethoCult conditioned media (Stem Cell Technologies, Vancouver, Canada). After 14 days, macroscopic colonies were stained with iodonitrotetrazolium chloride (Sigma Aldrich) overnight and counted. Only colonies with 50 or more cells were counted.

[14] = test system: OCI-Ly1 xenografts (LMO2 negative); assay: DLBCL subcutaneous xenograft model; format: in vivo, NOD/SCID mice; conditions: olaparib 50 mg/kg
Excerpt: (§3) Subcutaneous xenograft tumors were generated by human DLBCL cells (OCI-Ly19 or OCI-Ly1) injected into NOD/SCID (5 million cells/mouse). Treatment started when tumor reached 100 mm^3 (˜10 days post-injection). FIG. 5A, Kaplan-Meier plots: OCI-Ly19 (n=per group: n=8 CTL, n=9 olaparib, n=5 RCHOP, n=5 RCHOP+olaparib) and OCI-Ly1 (n=5 per group). Mice were euthanized when the tumor volume reached 1500 mm^3 in accordance with the institutional guidelines. Statistical analysis was done by the log rank (Mantel-Cox) test. FIG. 5B, Ex vivo analyses of the tumors. The xenografts were generated as described above. Shown are representative FACS analyses of the OCI-Ly19 tumor cells exposed or not to olaparib during 3 days and stained with Annexin V and propidium iodide (PI). FIG. 5C, Tunnel assays in OCI-Ly19 tumor samples exposed or not to olaparib.
(§4) All mice studies were conducted after approval of IACUC protocol. For DLBCL xenograft model, five-week-old female NOD/SCID mice (Harlan's) were subcutaneously injected with DLBCL cell line OCI-LY19 (5×10^6 cells/mouse) into the right flank. Once tumors reached 100 mm^3, mice were subdivided into two experimental groups (n=5-7/group). One group received buffer solution (1×PBS) and the other group received Olaparib (50 mg/kg; LC Labs, MA) for 21 consecutive days via IP injection. In separate experiments, one group received buffer solution (1×PBS), second group received Olaparib (50 mg/kg; LC Labs, MA), third group RCHOP (Rituximab 20 mg/kg, i.v. for a single dose on D1; cyclophosphamide, 40 mg/kg, D1; doxorubicin, 3.3 mg/kg, i.v. D1; vincristine, 0.5 mg/kg, i.v. D1; and prednisone, 0.2 mg/kg, every day by oral gavage on D1-5 and fourth group combination of Olaparib with RCHOP. Tumor bearing mice were observed every two days for tumor volume and weight loss was measured using standard calipers. Once the tumor volume exceeded 1500 mm^3 or the mouse […] dropped more than 10% total body weight, the mice were sacrificed.

[15] = test system: OCI-Ly19 xenografts (LMO2 positive); assay: DLBCL subcutaneous xenograft model; format: in vivo, NOD/SCID mice; conditions: for lifespan (survival): olaparib 50 mg/kg IP, 21 days, vs control group
Excerpt: as §3, §4

N.N.O=C([O-])C1(C(=O)[O-])CCC1.[Pt+2] [carboplatin]
synergy with olaparib (carboplatin) ([1]; olaparib + carboplatin, OCI-Ly19 and DOHH2): showed synergy

O=C(c1cc(Cc2n[nH]c(=O)c3ccccc23)ccc1F)N1CCN(C(=O)C2CC2)CC1 [olaparib]
DNA damage (γH2AX foci) [2]: increased DNA damage
IC50 [3]: 120 nM
IC50 [4]: 800 nM
IC50 [5]: 130 nM
effect on DLBCL LMO2- and control cell lines [6]: no or minimal effect
cell proliferation [7]: decreases proliferation; also recorded: statistically significant (p<0.001 by ANOVA) decrease in cell proliferation
synergy with doxorubicin ([1]; olaparib + doxorubicin, three DLBCL LMO2+ cell lines, preliminary studies): synergistic
cell proliferation [8]: decreases proliferation
cell proliferation ([8]; listed as Olaparib): statistically significant (p<0.001 by ANOVA) decrease in cell proliferation
cell death via apoptosis [9]: induces cell apoptosis; also recorded: increased cell death via apoptosis
concentration observed in the blood [10]: 2000 nM
cell death [11]: induces cell apoptosis
cell death ([11]; listed as Olaparib): increase in cell death
proliferation capacity of primary tumor samples, olaparib alone [12]: only affected the proliferation capacity of the DLBCL sample expressing LMO2 protein
proliferation capacity of primary tumor samples, olaparib in combination with doxorubicin [12]: only affected the proliferation capacity of the DLBCL sample expressing LMO2 protein
proliferation capacity of primary tumor samples, olaparib in combination with doxorubicin ([12]; listed as Olaparib): show synergy
colony formation [13]: pronounced olaparib-mediated decrease in colony formation
lifespan (survival) [14]: did not produce any effect
cell death in tumors (Annexin V, PI, Tunnel assay) ([15]; OCI-Ly19 tumors, ex vivo analysis): increase in cell death
lifespan (survival) ([15]; OCI-Ly19 xenografts): increased the lifespan
lifespan (survival) ([15]; OCI-Ly19 xenografts, listed as Olaparib): prolongs survival
lifespan in combination with RCHOP ([15]; OCI-Ly19 xenografts, olaparib + RCHOP vs RCHOP): increased the life-span
tumor growth in vivo ([15]; human DLBCL cells expressing LMO2, murine xenograft): slows growth
